Reference: patent US9078429B2, “Method of cryopreserving stem cells” (The Governors of the University of Alberta, priority 2004, dated 2015)

System: TF-1 cells
Assay: Post-thaw recovery of TF-1 cells by membrane integrity assay (SYTO 13/ethidium bromide) after cryopreservation
Format: cell-based, human
Conditions: TF-1 cells in 10% DMSO/RPMI, conventional cooling at a constant rate of 0.9° C./min, then liquid nitrogen, thawed
Method: FIG. 12. Membrane integrity of TF-1 cells in 10% DMSO cooled at 1° C./min to various subzero temperatures and then either thawed directly (upper curve) or cooled rapidly at 325° C./min in liquid nitrogen (lower curve) before being thawed.
TF-1 cells (ATCC, Manassas, Va.) were grown at 37° C. in 5% CO2 in RPMI 1640 Medium Modified (ATCC) with 10% fetal bovine serum (FBS) (ATCC), and supplemented with 2 ng/mL recombinant human GM-CSF (Stemcell Technologies, Vancouver, Canada). Cells were maintained between 0.1×10^6 and 1×10^6 cells/mL, according to ATCC guidelines. Prior to experiments, cells were washed twice with serum-free RPMI media and incubated overnight. […]
Cell viability was assessed by a membrane integrity assay. […]
The Syto/EB stain was prepared using 40 μL of 2.5 mM EB stock solution and 10 μL of 5 mM Syto® 13 stock solution mixed with 350 μL 1× phosphate-buffered saline (PBS). […] Fluorescent images were captured using a Leitz Dialux 22 fluorescence (440-480 nm) microscope (Leitz, Germany) fitted with a PIXERA DiRactor (Pixera Corporation, Los Gatos, Calif., USA) digital camera. The Viability Assessment Program (The Great Canadian Computer Company, Spruce Grove, Canada), which counts red versus green pixels was used to quantify cell membrane integrity from digital images (Jomha, 2003). […]

With `C[S+](C)[O-]` [DMSO, dimethyl sulfoxide] as the compound, how does the “recovery (membrane integrity) after thawing” value read?
Its value is 63.7%.
